From patent publication US20030036524A1, “Method of sensitising endothelial cells to prodrugs” (priority 2000, published 2003)

Tested on: HUVEC cells
Assay: Functional bio-assay: endothelial cell proliferation of Ad5C2B1-infected HUVEC cells treated with ifosfamide, crystal-violet cell number
Format: cell-based, human
Conditions: day 8
Description: To test the bioactivity of the CYP2B1 transgene, human umbilical vein […] (HUVEC) cells [Jaffe et al.; J. Clin. Invest.
HUVEC cells were infected with Ad5C2B1 on day 2 with concentrations ranging from 0 to 2×10^8 PFU/ml for 2 hours.
The cells were seeded at 40.000 cells/well at day 3 (some wells were not sub-cultured but saved for cell extracts and medium collection at day 4).
HUVEC cells were grown on gelatin-coated tissue culture dishes in medium 199 (Biowhitakker), supplemented with 10% (vol/vol) human serum, 10% (v/v) heat-inactivated newborn calf serum (Biowhitakker), 5 U/mL of heparin (Leo Pharma BV), […] of crude EC growth factor (TNO-PG, Leiden), 100 U/mL of penicillin, and […] of streptomycin (Biowhitakker). Cells were grown at 37° C. in a humid atmosphere with 5% (vol/vol) CO2.
Cell numbers were determined at day 8 using crystal-violet staining and optical density measurement.
To quantify the effect off viral infection and prodrug treatment the cells numbers were determined as described above.

O=P1(NCCCl)OCCCN1CCCl (stereo not drawn) [Ifosfamide, ifosfamide]
Number of Cells (Virus 0 PFU/ml, Ifosfamide 0.0625 mM): 152000 | Number of Cells (Virus 0 PFU/ml, Ifosfamide 0.125 mM): 151600 | Number of Cells (Virus 0 PFU/ml, Ifosfamide 0.25 mM): 152500 | Number of Cells (Virus 0 PFU/ml, Ifosfamide 0.50 mM): 116000 | Number of Cells (Virus 1 × 10^8 PFU/ml, Ifosfamide 0.0625 mM): 80500 | Number of Cells (Virus 1 × 10^8 PFU/ml, Ifosfamide 0.125 mM): 63600 | Number of Cells (Virus 1 × 10^8 PFU/ml, Ifosfamide 0.25 mM): 66000 | Number of Cells (Virus 1 × 10^8 PFU/ml, Ifosfamide 0.50 mM): 38500 | Number of Cells (Virus 1.25 × 10^7 PFU/ml, Ifosfamide 0.0625 mM): 98000 | Number of Cells (Virus 1.25 × 10^7 PFU/ml, Ifosfamide 0.125 mM): 110000 | Number of Cells (Virus 1.25 × 10^7 PFU/ml, Ifosfamide 0.25 mM): 102000 | Number of Cells (Virus 1.25 × 10^7 PFU/ml, Ifosfamide 0.50 mM): 85000 | Number of Cells (Virus 2 × 10^8 PFU/ml, Ifosfamide 0.0625 mM): 60000 | Number of Cells (Virus 2 × 10^8 PFU/ml, Ifosfamide 0.125 mM): 54000 | Number of Cells (Virus 2 × 10^8 PFU/ml, Ifosfamide 0.25 mM): 53000 | Number of Cells (Virus 2 × 10^8 PFU/ml, Ifosfamide 0.50 mM): 30000 | Number of Cells (Virus 2.5 × 10^7 PFU/ml, Ifosfamide 0.0625 mM): 88000 | Number of Cells (Virus 2.5 × 10^7 PFU/ml, Ifosfamide 0.125 mM): 85000 | Number of Cells (Virus 2.5 × 10^7 PFU/ml, Ifosfamide 0.25 mM): 79200 | Number of Cells (Virus 2.5 × 10^7 PFU/ml, Ifosfamide 0.50 mM): 56000 | Number of Cells (Virus 5 × 10^7 PFU/ml, Ifosfamide 0.0625 mM): 87000 | Number of Cells (Virus 5 × 10^7 PFU/ml, Ifosfamide 0.125 mM): 85000 | Number of Cells (Virus 5 × 10^7 PFU/ml, Ifosfamide 0.25 mM): 75000 | Number of Cells (Virus 5 × 10^7 PFU/ml, Ifosfamide 0.50 mM): 55000
